The test system of the assay is Rattus norvegicus. The experiment in a line: Antinociceptive activity in non-injured Sprague-Dawley rat model assessed as paw withdrawal latency at 10 ug/5 uL administered intrathecal after 5 mins by radiant heat assay relative to vehicle-treated control. Format: functional.

Drawing on ChEMBL document CHEMBL3751670, “Enkephalin analogues with N-phenyl-N-(piperidin-2-ylmethyl)propionamide derivatives: Synthesis and biological evaluations” (Bioorg Med Chem Lett, 2016), this text covers Activity for one compound.

For `CCC(=O)N(CC1CCCCN1[C@@H](Cc1ccccc1)C(=O)NCC(=O)N[C@H](C)C(=O)N[C@@H](Cc1c(C)cc(O)cc1C)C(=O)O)c1ccccc1` (stereo partly specified), the Activity is on record as 63%.
